Measured values from PMC11945486, “TAS1R2/TAS1R3 Single-Nucleotide Polymorphisms Affect Sweet Taste Receptor Activation by Sweeteners: The SWEET Project” (Nutrients, 2025).
Where two headings read alike, the source gives them in different places. No end group written: not given here.

B1: thaumatin (protein)
chain: ATFEIVNRCSYTVWAAASKGDAALDAGGRQLNSGESWTINVEPGTKGGKIWARTDCYFDDSGSGICKTGDCGGLLRCKRFGRPPTTLAEFSLNQYGKDYIDISNIKGFNVPMDFSPTTRGCRGVRCAADIVGQCPAKLKAPGGGCNDACTVFQTSEYCCTTGKCGPTEYSRFFKRLCPDAFSYVLDKPTTVTCPGSSNYRVTFCPTA
modifications: Eight disulfides
notes: sweet-tasting plant protein, E957

Target: T1, human TAS1R2-WT/TAS1R3-F514L (Homo sapiens, UniProt Q7RTX0+Q8TE23, F514L)
T1 construct: expressed in transfected cells; host or cells: HEK293T stably expressing Gα16gust44
T1 sequence (Q8TE23 20-839): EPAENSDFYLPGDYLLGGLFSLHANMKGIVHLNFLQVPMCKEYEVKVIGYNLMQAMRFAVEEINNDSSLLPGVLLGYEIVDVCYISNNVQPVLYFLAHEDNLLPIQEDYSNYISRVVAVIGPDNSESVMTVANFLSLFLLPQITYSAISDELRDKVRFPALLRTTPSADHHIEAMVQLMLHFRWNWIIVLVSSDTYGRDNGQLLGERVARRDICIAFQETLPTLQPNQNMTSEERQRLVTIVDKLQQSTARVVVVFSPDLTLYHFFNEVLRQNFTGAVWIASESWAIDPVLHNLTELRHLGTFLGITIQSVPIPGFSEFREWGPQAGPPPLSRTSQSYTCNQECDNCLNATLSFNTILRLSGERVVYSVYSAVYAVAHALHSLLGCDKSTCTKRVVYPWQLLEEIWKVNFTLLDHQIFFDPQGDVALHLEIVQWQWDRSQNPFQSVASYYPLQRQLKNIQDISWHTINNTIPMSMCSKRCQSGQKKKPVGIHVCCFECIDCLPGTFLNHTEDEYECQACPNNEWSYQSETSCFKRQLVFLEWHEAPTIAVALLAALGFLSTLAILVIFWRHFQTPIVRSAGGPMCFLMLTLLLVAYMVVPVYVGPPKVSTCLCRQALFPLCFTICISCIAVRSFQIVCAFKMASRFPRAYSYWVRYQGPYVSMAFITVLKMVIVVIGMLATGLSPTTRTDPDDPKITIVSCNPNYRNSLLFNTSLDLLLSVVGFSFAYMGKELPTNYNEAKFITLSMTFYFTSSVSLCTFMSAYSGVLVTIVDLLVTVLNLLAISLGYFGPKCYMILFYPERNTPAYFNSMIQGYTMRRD
T1 sequence (Q7RTX0 21-852 F514L): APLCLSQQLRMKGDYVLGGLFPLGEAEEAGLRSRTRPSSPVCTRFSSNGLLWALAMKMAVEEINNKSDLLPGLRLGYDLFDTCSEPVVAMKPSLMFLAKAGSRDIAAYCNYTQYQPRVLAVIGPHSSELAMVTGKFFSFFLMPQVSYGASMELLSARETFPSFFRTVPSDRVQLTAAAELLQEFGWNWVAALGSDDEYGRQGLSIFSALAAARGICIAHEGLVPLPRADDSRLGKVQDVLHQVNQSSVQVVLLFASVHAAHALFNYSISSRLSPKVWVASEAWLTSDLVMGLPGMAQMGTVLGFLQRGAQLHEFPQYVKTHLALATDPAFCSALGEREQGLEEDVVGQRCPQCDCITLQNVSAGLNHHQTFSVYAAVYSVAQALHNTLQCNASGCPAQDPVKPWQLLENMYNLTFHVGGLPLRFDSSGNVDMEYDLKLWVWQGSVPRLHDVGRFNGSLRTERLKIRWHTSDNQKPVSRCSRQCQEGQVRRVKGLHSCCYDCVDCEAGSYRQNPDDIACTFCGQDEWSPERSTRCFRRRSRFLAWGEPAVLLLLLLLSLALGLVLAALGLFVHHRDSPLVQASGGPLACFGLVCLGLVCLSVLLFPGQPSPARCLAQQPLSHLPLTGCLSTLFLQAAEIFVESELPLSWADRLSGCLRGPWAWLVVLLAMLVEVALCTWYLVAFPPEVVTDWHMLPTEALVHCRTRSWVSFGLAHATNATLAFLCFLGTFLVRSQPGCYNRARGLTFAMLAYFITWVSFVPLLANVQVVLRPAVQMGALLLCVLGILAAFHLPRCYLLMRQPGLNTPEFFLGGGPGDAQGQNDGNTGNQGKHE
Test: Calcium mobilisation assay, TAS1R2-WT with TAS1R3 variant F514L
Assay type: cell-based
Conditions: for Max ΔF/F0: maximal signal amplitude
Text: The coding sequences for TAS1R2 and TAS1R3 were commercially synthesised, and the human codon was optimised for expression in human cells. The coding sequences of human TAS1R2 and TAS1R3 were subcloned and inserted into the mammalian expression vectors pcDNA6/myc-HisA and pcDNA4/myc-HisA (Invitrogen; Thermo Fisher Scientific; Illkirch, France) between the EcoRI and NotI restriction sites, generating the plasmids pcDNA6-TAS1R2 and pcDNA4-TAS1R3, respectively. To increase protein expression in mammalian cells, an upstream start codon was used, which was a sequence called MAX, corresponding to the QBI SP163 element also described in pcDNA4-HisMax (Invitrogen; Thermo Fisher Scientific; Illkirch, France). To measure the expression level of the receptor by immunohistochemistry, we used the FLAG sequence ([…]) in the C-terminal position, which encodes the FLAG tag epitope. SNP variants of TAS1R2 and TAS1R3 were constructed based on […], respectively, using site-directed mutagenesis (Genewiz; Leipzig, Germany).
The HEK293T cells were kindly provided by Jay P. Slack (Givaudan Flavors Corporation; Cincinnati, OH, USA). HEK293T cells stably transfected with Gα16gust44 [43, 67] were seeded in poly-D-lysine-coated clear-bottom black 96-well plates (0.35 × 10^5 cells/well) in high-glucose DMEM supplemented with 2 mM GlutaMAX, 10% dialysed foetal bovine serum with penicillin/streptomycin and G418 (400 μg/mL) at 37 °C and 6.3% CO2 in a humidified atmosphere as previously reported. […] As a negative control, HEK293T cells were mock-transfected with the empty expression vector. After a further 24 h of incubation, the HEK293T cells were washed with C1 buffer (130 mM NaCl, 5 mM KCl, 10 mM HEPES pH 7.4 and 2 mM CaCl2). The 96-well plates containing the cells were then stimulated with sweet-tasting compounds. […] Different concentration ranges were tested depending on the sweet compound injected. The Ca^2+ changes were expressed as fractional changes in fluorescent light intensity: ΔF/F = (F − F0)/F0, where F was the fluorescent light intensity at each point, and F0 was the value of emitted fluorescent light prior to stimulus application. To calculate dose–response relationships, the changes in fluorescence upon stimulus application were averaged, mock-subtracted and baseline-corrected. The dose–response data obtained were adjusted using a 4-parameter logistic equation. The half-maximal effective concentrations (EC50 values) and maximal signal amplitudes were calculated using SigmaPlot software (version 15.0) (Systat Software; San Jose, CA, USA).
For in vitro calcium mobilisation assay performed on hTAS1R2-SNPs, hTAS1R3-SNPs and mTAS1R3-I60T, 6 to 7 concentrations were tested for each sweet compound, plus buffer alone. All concentration–receptor combinations were measured in duplicate, and each experiment was repeated at least 4 times (8 wells/concentration). Results were expressed for each concentration as ΔF/F mean ± SEM and represented as dose–response curves.

Molecule	R1 = Variant EC50/WT EC50	Max ΔF/F0	EC50 (read-out: EC50)	EC50 (brazzein)
C=C(C)[C@@H]1CC=C(/C=N/O)CC1 [Perillartine, perillartine]	1.0	1.40 ± 0.24	13.9 ± 7.3 µM	
O=S(=O)(O)NC1CCCCC1 [Cyclamate, cyclamate]			1250 ± 30 µM	
C=C1C[C@@]23CC[C@H]4[C@@](C)(CCC[C@@]4(C)C(=O)O[C@@H]4O[C@H](CO)[C@@H](O)[C@H](O[C@@H]5O[C@H](CO)[C@@H](O)[C@H](O)[C@H]5O)[C@H]4O[C@@H]4O[C@H](CO)[C@@H](O)[C@H](O)[C@H]4O)[C@@H]2CC[C@]1(O[C@@H]1O[C@H](CO)[C@@H](O)[C@H](O[C@@H]2O[C@H](CO)[C@@H](O)[C@H](O)[C@H]2O)[C@H]1O[C@@H]1O[C@H](CO)[C@@H](O)[C@H](O)[C@H]1O)C3 [Rebaudioside M, rebaudioside M]	0.8	0.64 ± 0.02	32.1 ± 2.5 µM	
OC[C@H]1O[C@H](O[C@]2(CCl)O[C@H](CCl)[C@@H](O)[C@@H]2O)[C@H](O)[C@@H](O)[C@H]1Cl [Sucralose]	1.3	0.49 ± 0.01	141 ± 3 µM	
CC1=CC(=O)NS(=O)(=O)O1 [Acesulfame K, acesulfame K]	0.7	0.14 ± 0.01	442 ± 24 µM	
brazzein (QDKCKKVYENYPVSKCQLANQCNYDCKLDKHARSGECFYDEKRNLQCICDYCEY; ends and bridges not checked; cysteine pairing not given here; UniProt P56552 1-54, looked up) [sweet-tasting protein obtained by recombinant production using the yeast Pichia pastoris]	0.4	1.07 ± 0.04		44.4 ± 6.4 µg/mL
thaumatin	0.9	0.72 ± 0.04		
COC(=O)[C@H](Cc1ccccc1)NC(=O)[C@H](CC(=O)O)NCCC(C)(C)C [Neotame]	1.0	0.45 ± 0.01	1.23 ± 0.06 µM	
C[C@H](CC[C@@H](O[C@@H]1O[C@H](CO[C@@H]2O[C@H](CO)[C@@H](O)[C@H](O)[C@H]2O)[C@@H](O)[C@H](O)[C@H]1O[C@@H]1O[C@H](CO)[C@@H](O)[C@H](O)[C@H]1O)C(C)(C)O)[C@H]1CC[C@@]2(C)[C@@H]3CC=C4[C@@H](CC[C@H](O[C@@H]5O[C@H](CO[C@@H]6O[C@H](CO)[C@@H](O)[C@H](O)[C@H]6O)[C@@H](O)[C@H](O)[C@H]5O)C4(C)C)[C@]3(C)[C@H](O)C[C@]12C [Mogroside V, mogroside V]	1.4	0.79 ± 0.02	44.7 ± 2.8 µM	
COc1ccc(CCC(=O)c2c(O)cc(O[C@@H]3O[C@H](CO)[C@@H](O)[C@H](O)[C@H]3O[C@@H]3O[C@@H](C)[C@H](O)[C@@H](O)[C@H]3O)cc2O)cc1O [NHDC, neohesperidin dihydrochalcone]	0.8	1.21 ± 0.08	37.9 ± 8.4 µM	
B1			9.8 ± 1 µM	
